Measured values: patent US10376520B2, “Methods for the treatment of cardiovascular disorders” (Galapagos NV, priority 2015, dated 2019)

How the values were obtained:
[1] = test system: RA patients; assay: [HDL] determination, Study 4 (RA patients, 4 weeks, add-on to MTX); assay type: in vivo, human
Excerpt: Randomized, double-blind, placebo-controlled, multicenter, phase II study of Compound 1 (dosed as a [Compound 1:HCl:3H2O]) to compare four dose regimens versus placebo, in combination with methotrexate, administered for 4 weeks in the treatment of subjects with active rheumatoid arthritis who have an inadequate response to methotrexate alone.
(§1) Randomized double-blind, placebo-controlled add on study in subjects with active RA who have an inadequate response to MTX monotherapy, in combination with methotrexate, administered for 4 weeks in the treatment of subjects with active rheumatoid arthritis who have an inadequate response to methotrexate alone.
90 subjects randomized to one of 4 dose regimens of Compound 1 (dosed as a [Compound 1:HCl:3H2O]) or placebo, on top of their stable dose of MTX. Thus, each of the 4 different doses of Compound 1 (dosed as a [Compound 1:HCl:3H2O]) and placebo groups has 18 subjects.
(§2) Compound 1 (dosed as a [Compound 1:HCl:3H2O]) capsules administered orally in 30 mg, 75 mg, 150 mg, or 300 mg doses per day for 4 weeks.
This assay relies on a homogeneous enzymatic colorimetric test. In the presence of magnesium ions, dextran sulfate selectively forms water-soluble complexes with LDL, VLDL and chylomicrons which are resistant to PEG-modified enzymes.
The cholesterol concentration of [HDL]-cholesterol is determined enzymatically by cholesterol esterase and cholesterol oxidase coupled with PEG to the amino groups (approx. 40%).
In the presence of peroxidase, the hydrogen peroxide generated reacts with 4-amino-antipyrine and Sodium N-(2-hydroxy-3-sulfopropyl)-3,5-dimethoxyaniline (HSDA) to form a purple-blue dye. The color intensity of this dye is directly proportional to the cholesterol concentration and is measured photometrically.
Human serum and plasma samples [HDL] determination was done on a Roche/Hitachi Cobas c 701/702 system which automatically calculate the analyte concentration of each sample. Samples containing precipitates are centrifuged before performing the assay.

[2] = test system: RA patients; assay: Paraoxonase assay (PON1), Study 4; assay type: in vivo, human; conditions: for PON1 level, 4 weeks CFB: 4 weeks change from baseline
Method: as §1, §2
Paraoxanases are involved, in particular PON1 have a role in preventing atherosclerosis.
The PON assay is performed according to published protocol by Mackness et al. (Mackness et al., 2003).

Question: `O=C(Nc1nc2cccc(-c3ccc(CN4CCS(=O)(=O)CC4)cc3)n2n1)C1CC1` [Compound 1, cyclopropanecarboxylic acid {5-[4-(1,1-dioxo-thiomorpholin-4-ylmethyl)-phenyl]-[1,2,4]triazolo[1,5-a]pyridin-2yl}-amide] was tested. Which “[HDL] levels” value ([1]; 30 mg q.d., Baseline) did it give?
Answer: Its value is 1.40 mmol/L.

Question: And the “[HDL] levels” value ([1]; 30 mg q.d., week 1)?
Answer: The value was 1.44 mmol/L.

Question: And the “[HDL] levels” value ([1]; 30 mg q.d., week 2)?
Answer: Its value is 1.43 mmol/L.

Question: And the “[HDL] levels” value ([1]; 30 mg q.d., week 3)?
Answer: Its value is 1.38 mmol/L.

Question: What about the “[HDL] levels” value ([1]; 30 mg q.d., week 4) of the same compound?
Answer: Its value is 1.43 mmol/L.

Question: What about the “[HDL] % Mean % variation vs baseline after 4 weeks” value (“[HDL] % Mean % variation” for short) ([1]; 30 mg qd) of the same compound?
Answer: The value was 4%.

Question: What about the “[HDL] levels” value ([1]; 75 mg q.d., Baseline) of the same compound?
Answer: Its value is 1.46 mmol/L.

Question: What about the “[HDL] levels” value ([1]; 75 mg q.d., week 1) of the same compound?
Answer: Its value is 1.46 mmol/L.

Question: What about the “[HDL] levels” value ([1]; 75 mg q.d., week 2) of the same compound?
Answer: The value was 1.50 mmol/L.

Question: And the “[HDL] levels” value ([1]; 75 mg q.d., week 3)?
Answer: Its value is 1.56 mmol/L.

Question: And the “[HDL] levels” value ([1]; 75 mg q.d., week 4)?
Answer: The value was 1.57 mmol/L.

Question: And the “[HDL] % Mean % variation” value ([1]; 75 mg qd)?
Answer: Its value is 11%.

Question: What about the “[HDL] levels” value ([1]; 150 mg q.d., Baseline) of the same compound?
Answer: Its value is 1.46 mmol/L.

Question: What about the “[HDL] levels” value ([1]; 150 mg q.d., week 1) of the same compound?
Answer: The value was 1.45 mmol/L.

Question: And the “[HDL] levels” value ([1]; 150 mg q.d., week 2)?
Answer: Its value is 1.47 mmol/L.

Question: What about the “[HDL] levels” value ([1]; 150 mg q.d., week 3) of the same compound?
Answer: Its value is 1.55 mmol/L.

Question: What about the “[HDL] levels” value ([1]; 150 mg q.d., week 4) of the same compound?
Answer: The value was 1.53 mmol/L.

Question: What about the “[HDL] % Mean % variation” value ([1]; 150 mg qd) of the same compound?
Answer: Its value is 4%.

Question: And the “[HDL] levels” value ([1]; 300 mg q.d., Baseline)?
Answer: Its value is 1.36 mmol/L.

Question: And the “[HDL] levels” value ([1]; 300 mg q.d., week 1)?
Answer: Its value is 1.55 mmol/L.

Question: And the “[HDL] levels” value ([1]; 300 mg q.d., week 2)?
Answer: Its value is 1.73 mmol/L.

Question: What about the “[HDL] levels” value ([1]; 300 mg q.d., week 3) of the same compound?
Answer: The value was 1.75 mmol/L.

Question: What about the “[HDL] levels” value ([1]; 300 mg q.d., week 4) of the same compound?
Answer: The value was 1.84 mmol/L.

Question: What about the “[HDL] % Mean % variation” value ([1]; 300 mg qd) of the same compound?
Answer: The value was 38%.

Question: What about the “PON1 level, 4 weeks CFB” value ([2]; 30 mg q.d.) of the same compound?
Answer: Its value is 4.2%.

Question: And the “PON1 level, 4 weeks CFB” value ([2]; 75 mg q.d.)?
Answer: The value was 11.2%.

Question: And the “PON1 level, Baseline” value ([2]; 75 mg q.d.)?
Answer: Its value is 69.3 ng/mL.

Question: And the “PON1 level, week 4” value ([2]; 75 mg q.d.)?
Answer: The value was 73.7 ng/mL.

Question: What about the “PON1 level, 4 weeks CFB” value ([2]; 150 mg q.d.) of the same compound?
Answer: The value was 43.4%.

Question: What about the “PON1 level, Baseline” value ([2]; 150 mg q.d.) of the same compound?
Answer: Its value is 52.5 ng/mL.

Question: And the “PON1 level, week 4” value ([2]; 150 mg q.d.)?
Answer: Its value is 70.6 ng/mL.

Question: What about the “PON1 level, 4 weeks CFB” value ([2]; 300 mg q.d.) of the same compound?
Answer: The value was 31.0%.

Question: And the “PON1 level, week 4” value ([2]; 300 mg q.d.)?
Answer: Its value is 77.5 ng/mL.
